From patent publication US10653688B2, “6-(6-membered heteroaryl and aryl)isoquinolin-3-yl carboxamides and preparation and use thereof” (Samumed, LLC, priority 2017, dated 2020) come the findings set out here.

The subject of assay [1] is SW480 colon carcinoma cells. As to the kind of experiment: Cell viability assay (CellTiter-Glo). Type of assay: cell-based, human. Conditions: Homo sapiens, 96 h, four days, CellTiter-Glo. In general terms: In ATP-based viability assays light output follows the ATP content of the culture.
For assay [2], the system named is LL29 cells (primary human fibroblasts derived from IPF patients), α-smooth muscle actin. As to the kind of experiment: Inhibition of fibrotic process: TGF-β1-treated primary human fibroblasts, αSMA staining.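 On all read-outs here: controls were TGF-β1-stimulated wells with DMSO vehicle as the positive reference and cells given DMSO alone as the negative reference.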 Conditions: Homo sapiens, Fibroblast; for EC50: 96 h, TGF-β1 20 ng/mL, 4 days, % cells positive for αSMA; for inhibition at 10 µM: read-out: percent inhibition at 10 μM (given for EC50 >10 μM), TGF-β1, αSMA, 10 μM. The class given is cell-based.

The target in a further assay is recombinant GSK3β kinase (Homo sapiens (Human), UniProt P49841). As to the kind of experiment: GSK3β kinase assay (Ser/Thr 09 peptide Z-lyte, FRET).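 Further: FRET read-out as coumarin over fluorescein emission ratio, compounds incubated one hour at room temperature, IC50 from dose-response curve fit.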 Type of assay: biochemical. Conditions: GSK3β kinase; head says EC50, method says IC50; ATP 46 μM.
The subject of assay [3] is Wnt activity (SW480 colon carcinoma cells stably expressing the Sp5-Luc reporter gene). The assay can be described thus: Wnt activity screening assay (Sp5-Luc reporter gene assay). The class given is cell-based, human. Conditions: Homo sapiens; for EC50: 36 to 48 hours. In short, it runs like this: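 SW480 colon carcinoma cells stably carrying a lentiviral luciferase reporter driven by an Sp5 promoter with eight TCF/LEF sites, plated at 4,000 cells/well in DMEM with 1% FBS. Compound exposure for 36–48 h at 37 °C, then luminescence read. Signals normalized to DMSO; EC50 from four-parameter nonlinear fit.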
On the technique in general: Reporter assays use an easily measured gene product as a stand-in for the process of interest.

The test system of assay [4] is IL-6 in human peripheral blood mononuclear cells (huPBMCs). The assay can be described thus: IL-6 inhibition in LPS-stimulated human peripheral blood mononuclear cells (HTRF). Type of assay: cell-based. Conditions: Homo sapiens, PBMC; for EC50: LPS 50 ng/mL, 22 hours, IL-6 HTRF; for inhibition at 10 µM: read-out: percent inhibition at 10 μM (given for EC50 >10 μM), LPS, IL-6, 10 μM. Summed up: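 Fresh normal human PBMCs at 1×10e6 cells/mL in RPMI with 1% FBS received compound, then 50 ng/mL E. coli 0111:B4 LPS 2 h later, and were incubated a further 22 h at 37° C. IL-6 read by HTRF (665/620 nm ratio), normalized to DMSO; EC50 from 4-parameter fit.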
(Time-resolved FRET reads energy transfer from a long-lived donor to a nearby acceptor.)

The target in assay [5] is recombinant DYRK1A kinase (Homo sapiens (Human), UniProt Q13627). The assay can be described thus: DYRK1A kinase assay (Ser/Thr 18 peptide Z-lyte, FRET). Conditions: DYRK1A kinase; head says EC50, method says IC50; ATP 30 μM.

recombinant GSK3β kinase, sequence (P49841 whole entry): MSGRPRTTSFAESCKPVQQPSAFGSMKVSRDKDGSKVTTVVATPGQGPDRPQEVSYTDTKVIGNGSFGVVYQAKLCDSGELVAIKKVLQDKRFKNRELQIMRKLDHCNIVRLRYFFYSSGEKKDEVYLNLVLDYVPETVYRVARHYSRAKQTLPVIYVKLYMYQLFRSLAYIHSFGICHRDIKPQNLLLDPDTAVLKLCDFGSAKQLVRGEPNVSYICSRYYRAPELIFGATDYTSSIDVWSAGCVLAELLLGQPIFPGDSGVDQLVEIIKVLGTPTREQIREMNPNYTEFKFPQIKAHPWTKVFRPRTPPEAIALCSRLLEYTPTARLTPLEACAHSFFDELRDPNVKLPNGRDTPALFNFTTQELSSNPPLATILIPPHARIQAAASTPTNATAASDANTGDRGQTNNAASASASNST

For `CC(C)N1CCC(Nc2cncc(-c3ccc4cnc(NC(=O)C5CC5)cc4c3)n2)CC1` [Compound 116, N-(6-(6-((1-Isopropylpiperidin-4-yl)amino)pyrazin-2-yl)isoquinolin-3-yl) cyclopropanecarboxamide], the concentration for a half-maximal effect (EC50) (commonly the concentration needed to bring the measured effect to its halfway point) in assay [1] stood at 485 nM; in assay [2], 105 nM; on recombinant GSK3β kinase, 58 nM; in assay [3], 198 nM; in assay [4] it was 358 nM; in assay [5], 1 nM.

Consider `CC(C)N1CCC(Nc2cncc(-c3ccc4cnc(NC(=O)C5CC(F)(F)C5)cc4c3)n2)CC1` [Compound 117, 3,3-Difluoro-N-(6-(6-((1-isopropylpiperidin-4-yl)amino)pyrazin-2-yl)isoquinolin-3-yl)cyclobutane-1-carboxamide], for which the EC50 in assay [1] turned out to be 1960 nM; in assay [2] it was 170 nM; on recombinant GSK3β kinase, 128 nM; in assay [3], 1470 nM; in assay [4] it was 1360 nM; in assay [5] it was 2 nM.

Turning to `CC(C)N1CCC(Nc2cncc(-c3ccc4cnc(NC(=O)C5CCCC5)cc4c3)n2)CC1` [Compound 118, N-(6-(6-((1-Isopropylpiperidin-4-yl)amino)pyrazin-2-yl)isoquinolin-3-yl) cyclopentanecarboxamide], the EC50 came out at 1190 nM in assay [1]; 148 nM in assay [2]; 78 nM on recombinant GSK3β kinase; 833 nM in assay [3]; 932 nM in assay [4]; 1 nM in assay [5].

In the case of `CC(C)N1CCC(Nc2cncc(-c3ccc4cnc(NC(=O)c5ccc(F)cc5)cc4c3)n2)CC1` [Compound 119, 4-Fluoro-N-(6-(6-((1-isopropylpiperidin-4-yl)amino)pyrazin-2-yl)isoquinolin-3-yl)benzamide], the EC50 in assay [1] was 9020 nM; in assay [2], more than 10000 nM; at recombinant GSK3β kinase, more than 10000 nM; in assay [3], more than 10000 nM; in assay [4], more than 10000 nM; in assay [5] it was 2 nM. Besides, the inhibition (in general, how much of the control response was suppressed) at 10 µM in assay [2] was 7.7%; in assay [3] (read-out: percent inhibition at 10 μM (given for EC50 >10 μM), 10 μM), 23.7%; in assay [4] it was 6.1%.

As for `CN1CCN(c2cc(C(=O)Nc3cc4cc(-c5cncc(N(C)C)n5)ccc4cn3)ccn2)CC1` [Compound 120, N-(6-(6-(Dimethylamino)pyrazin-2-yl)isoquinolin-3-yl)-2-(4-methylpiperazin-1-yl)isonicotinamide], the EC50 was 3320 nM in assay [1]; 620 nM in assay [2]; more than 10000 nM at recombinant GSK3β kinase; 2770 nM in assay [3]; 8890 nM in assay [4]; 7 nM in assay [5].

For the compound `CCN(CC)c1cncc(-c2ccc3cnc(NC(=O)c4ccnc(N5CCN(C)CC5)c4)cc3c2)n1` [Compound 121, N-(6-(6-(Diethylamino)pyrazin-2-yl)isoquinolin-3-yl)-2-(4-methylpiperazin-1-yl)isonicotinamide], the EC50 in assay [1] is 2910 nM; in assay [2], 710 nM; at recombinant GSK3β kinase, more than 10000 nM; in assay [3], 1040 nM; in assay [4] it was 1910 nM; in assay [5], 6 nM.

Consider `NC1CN(c2cncc(-c3ccc4cnc(NC(=O)c5ccc(F)cc5)cc4c3)n2)C1` [Compound 122, N-(6-(6-(3-aminoazetidin-1-yl)pyrazin-2-yl)isoquinolin-3-yl)-4-fluorobenzamide], for which the EC50 in assay [1] is 8900 nM; in assay [2] it was more than 10000 nM; on recombinant GSK3β kinase, more than 10000 nM; in assay [3], 6180 nM; in assay [4] it was 3150 nM; in assay [5] it was 11 nM. Besides, the inhibition at 10 µM in assay [2] stood at 4.8%.

Consider `CN1CCN(c2cc(C(=O)Nc3cc4cc(-c5cncc(N6CCCC6)n5)ccc4cn3)ccn2)CC1` [Compound 123, 2-(4-Methylpiperazin-1-yl)-N-(6-(6-(pyrrolidin-1-yl)pyrazin-2-yl)isoquinolin-3-yl)isonicotinamide], for which the 50% effective concentration (EC50) is 8330 nM in assay [1]; 1040 nM in assay [2]; more than 10000 nM on recombinant GSK3β kinase; 3570 nM in assay [3]; more than 10000 nM in assay [4]; 13 nM in assay [5]. In addition, in assay [4], the inhibition at 10 µM was determined as 20.9%.

As for `O=C(Nc1cc2cc(-c3cncc(OC4CNC4)n3)ccc2cn1)c1ccc(F)cc1` [Compound 125, N-(6-(6-(Azetidin-3-yloxy)pyrazin-2-yl)isoquinolin-3-yl)-4-fluorobenzamide], the EC50 is 7640 nM in assay [1]; more than 10000 nM in assay [2]; more than 10000 nM at recombinant GSK3β kinase; 7270 nM in assay [3]; more than 10000 nM in assay [4]; 5 nM in assay [5]. In addition, the inhibition at 10 µM amounted to 43.6% in assay [2] and 4.5% in assay [4].

With `CN1CCC(n2cc(C(=O)Nc3cc4cc(-c5cnc6[nH]ccc6c5)ccc4cn3)cn2)CC1` [Compound 126, N-(6-(1H-Pyrrolo[2,3-b]pyridin-5-yl)isoquinolin-3-yl)-1-(1-methylpiperidin-4-yl)-1H-pyrazole-4-carboxamide], the EC50 in assay [1] is 768 nM; in assay [2], 1450 nM; at recombinant GSK3β kinase, more than 10000 nM; in assay [3] it was 98 nM; in assay [4] it was 2720 nM; in assay [5], 22 nM.

Regarding `CN1CCC(n2cc(C(=O)Nc3cc4cc(-c5cnc6cc[nH]c6c5)ccc4cn3)cn2)CC1` [Compound 127, N-(6-(1H-Pyrrolo[3,2-b]pyridin-6-yl)isoquinolin-3-yl)-1-(1-methylpiperidin-4-yl)-1H-pyrazole-4-carboxamide], the EC50 in assay [1] was 74 nM; in assay [2], 272 nM; at recombinant GSK3β kinase, more than 10000 nM; in assay [3] it was 27 nM; in assay [4] it was 1560 nM; in assay [5] it was 5 nM.

As for `CN1CCC(n2cc(C(=O)Nc3cc4cc(-c5cncc6[nH]ccc56)ccc4cn3)cn2)CC1` [Compound 128, N-(6-(1H-Pyrrolo[2,3-c]pyridin-4-yl)isoquinolin-3-yl)-1-(1-methylpiperidin-4-yl)-1H-pyrazole-4-carboxamide], the EC50 came out at 31 nM in assay [1]; 102 nM in assay [2]; 9070 nM on recombinant GSK3β kinase; 13 nM in assay [3]; 678 nM in assay [4]; 4 nM in assay [5].

Consider `CN1CCN(c2cc(C(=O)Nc3cc4cc(-c5cnc6[nH]ccc6c5)ccc4cn3)ccn2)CC1` [Compound 129, N-(6-(1H-Pyrrolo[2,3-b]pyridin-5-yl)isoquinolin-3-yl)-2-(4-methylpiperazin-1-yl)isonicotinamide], for which the EC50 is 1170 nM in assay [1]; 699 nM in assay [2]; more than 10000 nM on recombinant GSK3β kinase; 1370 nM in assay [3]; 3360 nM in assay [4]; 18 nM in assay [5].

On to `CN1CCN(c2cc(C(=O)Nc3cc4cc(-c5cnc6cc[nH]c6c5)ccc4cn3)ccn2)CC1` [Compound 130, N-(6-(1H-Pyrrolo[3,2-b]pyridin-6-yl)isoquinolin-3-yl)-2-(4-methylpiperazin-1-yl)isonicotinamide], for which the EC50 in assay [1] is 501 nM; in assay [2], 941 nM; at recombinant GSK3β kinase it was more than 10000 nM; in assay [3] it was 378 nM; in assay [4], 3920 nM; in assay [5], 4 nM.

As to `CN1CCN(c2cc(C(=O)Nc3cc4cc(-c5cncc6[nH]ccc56)ccc4cn3)ccn2)CC1` [Compound 131, N-(6-(1H-Pyrrolo[2,3-c]pyridin-4-yl)isoquinolin-3-yl)-2-(4-methylpiperazin-1-yl)isonicotinamide], the 50% effective concentration (EC50) in assay [1] was 285 nM; in assay [2], 604 nM; on recombinant GSK3β kinase it was more than 10000 nM; in assay [3], 235 nM; in assay [4] it was 2900 nM; in assay [5], 3 nM.

In the case of `Cc1cc2cc(-c3ccc4cnc(NC(=O)c5ccnc(N6CCN(C)CC6)c5)cc4c3)cnc2[nH]1` [Compound 133, N-(6-(2-Methyl-1H-pyrrolo[2,3-b]pyridin-5-yl)isoquinolin-3-yl)-2-(4-methylpiperazin-1-yl)isonicotinamide], the EC50 in assay [1] was 3740 nM; in assay [2], 4030 nM; on recombinant GSK3β kinase, more than 10000 nM; in assay [3], 4080 nM; in assay [4], 3280 nM; in assay [5] it was 57 nM.

Regarding `Cc1c[nH]c2ncc(-c3ccc4cnc(NC(=O)c5ccnc(N6CCN(C)CC6)c5)cc4c3)cc12` [Compound 134, N-(6-(3-Methyl-1H-pyrrolo[2,3-b]pyridin-5-yl)isoquinolin-3-yl)-2-(4-methylpiperazin-1-yl)isonicotinamide], the EC50 in assay [1] is 3930 nM; in assay [2], 2750 nM; on recombinant GSK3β kinase, more than 10000 nM; in assay [3], 6210 nM; in assay [4], 8810 nM; in assay [5] it was 54 nM.
